These results are taken from US12252524B2, “GIP/GLP1 co-agonist compounds” (Eli Lilly and Company, priority 2018, dated 2025).

Numbered stars: 1 amine (or outer) side, 2 acyl side, 3 side chain; on linkers, the order of the positions; unused ones are H or OH. Square brackets hold non-standard residues; d marks the D form. Side chains are listed from the residue outwards. Peptide text beside a SMILES is read from it. * marks the point of attachment. C18 diacid = O=C(O)CCCCCCCCCCCCCCCCC(=O)*; αMePhe(2-F) = C[C@](N)(Cc1ccccc1F)C(=O)O; γGlu = O=C(O)[C@H](CCC(=O)[*:2])N[*:1]; αMeY = C[C@](N)(Cc1ccc(O)cc1)C(=O)O; αMeL = CC(C)C[C@](C)(N)C(=O)O; Orn = NCCC[C@H](N)C(=O)O; AEEA = NCCOCCOCC(=O)O; Aib = CC(C)(N)C(=O)O

The target of assay [1] is human GLP-1 receptor (GLP-1R) (Homo sapiens, UniProt P43220). The experiment in a line: cAMP pharmacological functional assay in presence of casein, hGLP-1R. The format is cell-based. The conditions noted are these: HEK293 cells expressing hGLP-1R, 0.1% Casein, geometric mean; read-out: hGLP1R cAMP Rel EC50 nM (SEM, n).
human GLP-1 receptor (GLP-1R), sequence (P43220 24-463): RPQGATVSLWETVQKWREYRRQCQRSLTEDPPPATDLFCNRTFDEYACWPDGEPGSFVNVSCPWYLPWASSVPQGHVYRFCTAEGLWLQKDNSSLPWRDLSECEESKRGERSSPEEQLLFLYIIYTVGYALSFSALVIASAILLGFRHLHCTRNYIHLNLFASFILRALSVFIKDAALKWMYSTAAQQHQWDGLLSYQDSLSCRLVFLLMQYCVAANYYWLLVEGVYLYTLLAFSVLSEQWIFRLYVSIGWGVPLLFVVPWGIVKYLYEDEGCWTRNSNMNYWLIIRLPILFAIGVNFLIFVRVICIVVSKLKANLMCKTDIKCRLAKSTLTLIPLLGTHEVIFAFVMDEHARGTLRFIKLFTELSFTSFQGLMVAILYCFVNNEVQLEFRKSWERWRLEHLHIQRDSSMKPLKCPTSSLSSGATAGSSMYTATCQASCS
Assay [2] has as its target T1, gastric inhibitory peptide receptor (GIPR) (Homo sapiens, UniProt P48546).
T1 sequence (P48546 22-466): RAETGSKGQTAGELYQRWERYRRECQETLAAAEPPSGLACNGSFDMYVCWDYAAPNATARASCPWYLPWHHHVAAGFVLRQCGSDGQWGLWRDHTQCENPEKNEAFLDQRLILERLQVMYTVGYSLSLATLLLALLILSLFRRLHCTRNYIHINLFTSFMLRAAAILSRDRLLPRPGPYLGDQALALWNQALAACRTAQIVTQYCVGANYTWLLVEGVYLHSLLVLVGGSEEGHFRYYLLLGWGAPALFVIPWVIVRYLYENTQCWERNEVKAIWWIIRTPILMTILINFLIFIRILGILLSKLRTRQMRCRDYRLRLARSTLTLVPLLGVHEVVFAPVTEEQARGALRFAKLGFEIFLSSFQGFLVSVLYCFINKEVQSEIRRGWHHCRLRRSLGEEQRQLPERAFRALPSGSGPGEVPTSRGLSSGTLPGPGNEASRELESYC
The experiment in a line: cAMP pharmacological functional assay in presence of casein, hGIPR. The format is cell-based. The following applies: HEK293 cells expressing hGIPR, 0.1% Casein, geometric mean; read-out: hGIPR cAMP Rel EC50 nM (SEM, n).

For orientation: EC50 means the concentration that produces a half-maximal response. As to `CC[C@H](C)[C@H](NC(=O)[C@H](CC(C)C)NC(=O)[C@](C)(Cc1ccc(O)cc1)NC(=O)[C@@H](CCC(=O)O)NC(=O)[C@@H](NC(=O)[C@H](Cc1ccccc1)NC(=O)[C@@H](NC(=O)C(C)(C)NC(=O)[C@H](CCC(N)=O)NC(=O)[C@H](C)NC(=O)[C@H](CCCCNC(=O)COCCOCCNC(=O)COCCOCCNC(=O)CC[C@H](NC(=O)CCCCCCCCCCCCCCCCC(=O)O)C(=O)O)NC(=O)[C@H](CCCN)NC(=O)[C@H](CC(=O)O)NC(=O)[C@H](CC(C)C)NC(=O)[C@](C)(CC(C)C)NC(=O)[C@@H](NC(=O)[C@H](CO)NC(=O)[C@H](C)NC(=O)[C@H](CC(=O)O)NC(=O)[C@H](CO)NC(=O)[C@@H](NC(=O)[C@](C)(Cc1ccccc1F)NC(=O)[C@@H](NC(=O)CNC(=O)[C@H](CCC(=O)O)NC(=O)C(C)(C)NC(=O)[C@@H](N)Cc1ccc(O)cc1)[C@@H](C)O)[C@@H](C)O)[C@@H](C)CC)[C@@H](C)O)[C@@H](C)CC)C(=O)N[C@@H](CCC(=O)O)C(=O)NCC(=O)NCC(=O)N1CCC[C@H]1C(=O)N[C@@H](CO)C(=O)N[C@@H](CO)C(=O)NCC(=O)N[C@@H](C)C(=O)N1CCC[C@H]1C(=O)N1CCC[C@H]1C(=O)N1CCC[C@H]1C(=O)N[C@@H](CO)C(N)=O` [Example 245] (H-Y[Aib]EGT[αMePhe(2-F)]TSDASI[αMeL]LD[Orn]K([AEEA-AEEA-γGlu-C18 diacid])AQ[Aib]TFI[dE][αMeY]LIEGGPSSGAPPPS-NH2), the EC50 in assay [1] turned out to be 0.0222 nM; in assay [2] it was 0.0552 nM.
For `CC[C@H](C)[C@H](NC(=O)[C@H](CC(C)C)NC(=O)[C@H](Cc1ccc(O)cc1)NC(=O)[C@H](CCC(=O)O)NC(=O)[C@@H](NC(=O)[C@H](Cc1ccccc1)NC(=O)[C@H](C)NC(=O)[C@H](CCCCN)NC(=O)[C@H](CCC(N)=O)NC(=O)[C@H](C)NC(=O)[C@H](CCCCNC(=O)COCCOCCNC(=O)COCCOCCNC(=O)CC[C@H](NC(=O)CCCCCCCCCCCCCCCCCCC(=O)O)C(=O)O)NC(=O)[C@H](CCCCN)NC(=O)[C@H](CC(=O)O)NC(=O)[C@H](CC(C)C)NC(=O)[C@H](CC(C)C)NC(=O)[C@@H](NC(=O)[C@H](CO)NC(=O)[C@H](Cc1ccc(O)cc1)NC(=O)[C@H](CC(=O)O)NC(=O)[C@H](CO)NC(=O)[C@@H](NC(=O)[C@H](Cc1ccccc1)NC(=O)[C@@H](NC(=O)CNC(=O)[C@H](CCC(=O)O)NC(=O)C(C)(C)NC(=O)[C@@H](N)Cc1ccc(O)cc1)[C@@H](C)O)[C@@H](C)O)[C@@H](C)CC)[C@@H](C)CC)C(=O)N[C@@H](CCC(=O)O)C(=O)NCC(=O)NCC(=O)N1CCC[C@H]1C(=O)N[C@@H](CO)C(=O)N[C@@H](CO)C(=O)NCC(=O)N[C@@H](C)C(=O)N1CCC[C@H]1C(=O)N1CCC[C@H]1C(=O)N1CCC[C@H]1C(=O)N[C@@H](CO)C(N)=O` [Example 256], in that order: 0.0506 nM and 0.643 nM.
